Laboratory results taken from patent US11059794B2, “Heterocyclic compounds useful as dual ATX/CA inhibitors” (Hoffmann-La Roche Inc., priority 2017, dated 2021).

Tests used:
[1] = target: ATX (human His-tagged) (Homo sapiens (Human), UniProt Q13822); experiment: Human ATX enzyme inhibition assay (fluorescence quenching, MR121 substrate); format: biochemical; conditions: 30 nM ATX, 1 μM MR121 substrate, 30° C.
[2] = target: Human carbonic anhydrase II (hCA-II) (Homo sapiens (Human), UniProt P00918); experiment: Human carbonic anhydrase-II inhibition assay (absorbance, 4-nitrophenyl acetate substrate); format: biochemical; conditions: 8 nM hCA II, 2.5 mM 4-NPA, absorbance 340 nm, 1 hour room temperature; read-out: CA-II IC50

IC50 [1] [nM]	IC50 [2] [nM]	Compound
3	–	Cc1nnn(Cc2cc(OC(F)F)ccc2CCC(=O)N2CCC(CC[S+]([O-])c3ccc(S(N)(=O)=O)c(F)c3F)CC2)n1 (stereo not shown) [Example 6.42, 4-[2-[1-[3-[4-(difluoromethoxy)-2-[(5-methyltetrazol-2-yl)methyl]phenyl]propanoyl]piperidin-4-yl]ethylsulfinyl]-2,3-difluorobenzenesulfonamide]
6	–	Cc1nnn(Cc2cc(C(F)(F)F)ccc2CCC(=O)N2CCC(CC[S+]([O-])c3ccc(S(N)(=O)=O)c(F)c3F)CC2)n1 (stereo not shown) [Example 6.43, 2,3-difluoro-4-[2-[1-[3-[2-[(5-methyltetrazol-2-yl)methyl]-4-(trifluoromethyl)phenyl]propanoyl]piperidin-4-yl]ethylsulfinyl]benzenesulfonamide]
8	–	Cc1nnn(Cc2cc(C(F)(F)F)ccc2COC(=O)N2CCC(S(=O)(=O)c3ccc(S(N)(=O)=O)cc3F)CC2)n1 [Example 1.04, [2-[(5-methyltetrazol-2-yl)methyl]-4-(trifluoromethyl)phenyl]methyl 4-(2-fluoro-4-sulfamoylphenyl)sulfonylpiperidine-1-carboxylate]
27	–	Cc1nnn(Cc2cc(C(F)(F)F)ccc2CCC(=O)N2CCN(Cc3ccc(S(N)(=O)=O)cc3)CC2)n1 [Example 9.00, 4-[[4-[3-[2-[(5-Methyltetrazol-2-yl)methyl]-4-(trifluoromethyl)phenyl]propanoyl]piperazin-1-yl]methyl]benzenesulfonamide]
73	–	Cc1nnn(Cc2cc(Cl)cnc2COC(=O)N2CCC(S(=O)(=O)c3ccc(S(N)(=O)=O)cc3F)CC2)n1 [Example 1.03, [5-chloro-3-[(5-methyltetrazol-2-yl)methyl]pyridin-2-yl]methyl 4-(2-fluoro-4-sulfamoylphenyl)sulfonylpiperidine-1-carboxylate]
7	–	Cc1nnn(Cc2cc(OC(F)F)ccc2CCC(=O)N2CCC(CC[S+]([O-])c3ncc(S(N)(=O)=O)s3)CC2)n1 (stereo not shown) [Example 6.44, 2-[2-[1-[3-[4-(difluoromethoxy)-2-[(5-methyltetrazol-2-yl)methyl]phenyl]propanoyl]piperidin-4-yl]ethylsulfinyl]-1,3-thiazole-5-sulfonamide]
4	14	Cc1nnn(Cc2cc(C(F)(F)F)ccc2CCC(=O)N2CCC(CC[S+]([O-])c3ncc(S(N)(=O)=O)s3)CC2)n1 (stereo not shown) [Example 6.06, 2-[2-[1-[3-[2-[(5-methyltetrazol-2-yl)methyl]-4-(trifluoromethyl)phenyl]propanoyl]piperidin-4-yl]ethylsulfinyl]-1,3-thiazole-5-sulfonamide]
7	15.5	NS(=O)(=O)c1ccc(CN2CCN(C(=O)c3cc(OCC4CCOCC4)nc(C4CC4)c3)CC2)c(F)c1 [Example 2.02, 4-[[4-[2-cyclopropyl-6-(oxan-4-ylmethoxy)pyridine-4-carbonyl]piperazin-1-yl]methyl]-3-fluorobenzenesulfonamide]
